The text below walks through data of patent publication US10538512B2, “Aminoacylindazole immunomodulators for treatment of autoimmune diseases” (The Rockefeller University, priority 2016, dated 2020).

One test has as its target T1, Human alpha-thrombin (Homo sapiens, UniProt P00734).
T1 construct: Human alpha-thrombin (Enzyme Research Labs); purchased Enzyme Research Labs
Put plainly: Thrombin counterscreen for selectivity, fluorogenic substrate assay. Particulars: Human alpha-thrombin 12.5 nM, Boc-Val-Pro-Arg-AMC 20 μM, 10 min preincubation. It counts as biochemical. A digest of the protocol:
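Compounds, about 1–100 μM, preincubated 10 min at room temperature with enzyme, then Boc-Val-Pro-Arg-AMC added at 20 μM final.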

Another test deals with T2, Human FXIIa (Homo sapiens, UniProt P00748).
T2 construct: active coagulation factor XII (FXIIa); purchased Enzyme Research Labs
T2 sequence (P00748 373-615 limits assumed): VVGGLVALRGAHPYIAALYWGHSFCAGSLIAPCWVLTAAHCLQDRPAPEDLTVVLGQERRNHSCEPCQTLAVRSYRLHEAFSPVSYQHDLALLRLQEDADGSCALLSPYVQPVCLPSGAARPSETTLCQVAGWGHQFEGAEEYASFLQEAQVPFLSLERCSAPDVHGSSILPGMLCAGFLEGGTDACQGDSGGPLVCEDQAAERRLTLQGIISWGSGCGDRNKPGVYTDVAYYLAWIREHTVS
T2 sequence (P00748 20-372 partner limits assumed): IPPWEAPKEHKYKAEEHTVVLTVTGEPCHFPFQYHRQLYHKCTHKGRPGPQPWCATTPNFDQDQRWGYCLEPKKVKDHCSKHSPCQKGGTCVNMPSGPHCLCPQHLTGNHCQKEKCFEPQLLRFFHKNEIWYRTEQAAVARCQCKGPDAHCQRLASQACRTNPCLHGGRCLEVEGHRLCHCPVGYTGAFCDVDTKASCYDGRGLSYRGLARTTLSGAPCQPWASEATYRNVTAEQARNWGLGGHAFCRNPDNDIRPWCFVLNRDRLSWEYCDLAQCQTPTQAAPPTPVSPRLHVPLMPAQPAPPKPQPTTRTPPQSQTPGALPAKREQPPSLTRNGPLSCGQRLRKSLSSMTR
Put plainly: Factor XIIa (FXIIa) inhibitory activity, chromogenic substrate assay. It counts as biochemical. The note with it: Human FXIIa 12.5 nM, Pefachrome XIIa 400 μM, 10 min preincubation. A digest of the protocol: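 Activity was taken as the rate of absorbance increase at 405 nm, read at 37 °C after adding 400 μM (final) Pefachrome XIIa. Compounds spanning roughly 1–100 μM were first preincubated with enzyme for 10 min at room temperature in HEPES pH 7.4-buffered HBSS/TBS-Tween.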

For orientation: IC50 means the concentration that gives 50% inhibition. A low value points to higher potency. With `Cc1cc2c(C(=O)N3N=C(N)C4CCCCC43)cccc2[nH]1` (stereo not shown) [Example 10, (3-amino-3a,4,5,6,7,7a-hexahydroindazol-1-yl)(2-methyl-1H-indol-4-yl)methanone], the IC50 is greater than 100 µM against Human alpha-thrombin and 90 µM on Human FXIIa.
The corresponding values for `O=C(Nc1[nH]nc2c1CCCC2)C1OCCc2ccccc21` (stereo not shown) [Example 14, N-(4,5,6,7-tetrahydro-2H-indazol-3-yl)isochroman-1-carboxamide] are greater than 10 µM and greater than 10 µM.
The corresponding values for `Cc1cc2c(C(=O)n3nc4c(c3N)CCCC4)cccc2n1C` [Example 22, (3-Amino-4,5,6,7-tetrahydroindazol-2-yl)(1,2-dimethyl-1H-indol-4-yl)methanone] are 20 µM and 0.04 µM.
Turning to `O=C(c1cccc2[nH]ccc12)n1cc2c(n1)CCCC2` [Example 27, (1H-indol-4-yl)(4,5,6,7-tetrahydroindazol-2-yl)methanone], the half-inhibitory concentration (IC50) was 6 µM against Human alpha-thrombin and 0.4 µM on Human FXIIa.
The corresponding values for `CCn1ccc2c(C(=O)n3nc4c(c3N)CCCC4)cccc21` [Example 28, (3-amino-4,5,6,7-tetrahydroindazol-2-yl)(1-ethyl-1H-indol-4-yl)methanone] are 36 µM and 0.06 µM.
The corresponding values for `CC(C)n1ccc2c(C(=O)n3nc4c(c3N)CCCC4)cccc21` [Example 29, (3-amino-4,5,6,7-tetrahydroindazol-2-yl)(1-isopropyl-1H-indol-4-yl)methanone] are greater than 50 µM and 0.15 µM.
The corresponding values for `Nc1c2c(nn1C(=O)c1cccc3c1ccn3Cc1ccccc1)CCCC2` [Example 30, (3-amino-4,5,6,7-tetrahydroindazol-2-yl)(1-benzyl-1H-indol-4-yl)methanone] are greater than 70 µM and 5 µM.
Regarding `CC(C)(C)c1cccc(C(=O)n2nc3c(c2N)CCCC3)c1` [Example 31, (3-amino-4,5,6,7-tetrahydroindazol-2-yl)(3-tert-butylphenyl)methanone], the IC50 was greater than 50 µM on Human alpha-thrombin and 0.15 µM against Human FXIIa.
The corresponding values for `Nc1c2c(nn1C(=O)c1csc3ccccc13)CCCC2` [Example 32, (3-amino-4,5,6,7-tetrahydroindazol-2-yl)(benzo[b]thiophen-3-yl)methanone] are greater than 50 µM and 0.15 µM.
The corresponding values for `Cc1csc(C)c1C(=O)n1cc2c(n1)CCCC2` [Example 35, 2-[(2,4-dimethylthiophen-3-yl)carbonyl]-4,5,6,7-tetrahydro-2H-indazole] are greater than 100 µM and greater than 100 µM.
For `CCCn1ccc2c(C(=O)n3nc4c(c3N)CCCC4)cccc21` [Example 36, (3-amino-4,5,6,7-tetrahydroindazol-2-yl)(1-propyl-1H-indol-4-yl)methanone], the IC50 against Human alpha-thrombin was greater than 80 µM; against Human FXIIa, 0.2 µM.
The corresponding values for `CCC(C)n1ccc2c(C(=O)n3nc4c(c3N)CCCC4)cccc21` (stereo not shown) [Example 37, (3-amino-4,5,6,7-tetrahydroindazol-2-yl)(1-sec-butyl-1H-indol-4-yl)methanone] are greater than 75 µM and 2.5 µM.
The corresponding values for `CCn1c(C)cc2c(C(=O)n3nc4c(c3N)CCCC4)cccc21` [Example 38, (3-amino-4,5,6,7-tetrahydroindazol-2-yl)(1-ethyl-2-methyl-1H-indol-4-yl)methanone] are 44 µM and 0.04 µM.
`CCc1ccccc1C(=O)n1nc2c(c1N)CCCC2` [Example 40, (3-amino-4,5,6,7-tetrahydroindazol-2-yl)(2-ethylphenyl)methanone]: the results for the IC50 on Human alpha-thrombin and at Human FXIIa were greater than 100 µM and 15 µM, respectively.
The corresponding values for `Nc1c2c(nn1C(=O)c1coc3ccccc13)CCCC2` [Example 41, (3-amino-4,5,6,7-tetrahydroindazol-2-yl)(benzofuran-3-yl)methanone] are greater than 100 µM and 1.2 µM.
Regarding `Nc1c2c(nn1C(=O)c1c[nH]c3ccccc13)CCCC2` [Example 42, (3-amino-4,5,6,7-tetrahydroindazol-2-yl)(1H-indol-3-yl)methanone], the figures for the IC50 on Human alpha-thrombin and at Human FXIIa were greater than 100 µM and 11 µM, respectively.
Take `CCn1cc(C(=O)n2nc3c(c2N)CCCC3)c2ccccc21` [Example 43, (3-amino-4,5,6,7-tetrahydroindazol-2-yl)(1-ethyl-1H-indol-3-yl)methanone]: the IC50 is greater than 100 µM against Human alpha-thrombin and 7.5 µM on Human FXIIa.
The corresponding values for `CCn1c(C)c(C(=O)n2nc3c(c2N)CCCC3)c2ccccc21` [Example 45, (3-amino-4,5,6,7-tetrahydroindazol-2-yl)(1-ethyl-2-methyl-1H-indol-3-yl)methanone] are greater than 100 µM and 12 µM.
`Nc1c2c(nn1C(=O)C1CCc3ccccc31)CCCC2` (stereo not shown) [Example 46, (3-amino-4,5,6,7-tetrahydroindazol-2-yl)(2,3-dihydro-1H-inden-1-yl)methanone]: the values for the IC50 against Human alpha-thrombin and on Human FXIIa were greater than 50 µM and 7.5 µM, respectively.
The corresponding values for `Nc1c2c(nn1C(=O)c1cccc3[nH]cnc13)CCCC2` [Example 48, (3-amino-4,5,6,7-tetrahydroindazol-2-yl)(1H-benzo[d]imidazol-4-yl)methanone] are greater than 100 µM and greater than 100 µM.
The corresponding values for `CCc1cc2c(C(=O)n3nc4c(c3N)CCCC4)cccc2[nH]1` [Example 50, (3-amino-4,5,6,7-tetrahydroindazol-2-yl)(2-ethyl-1H-indol-4-yl)methanone] are 25 µM and 0.01 µM.
Turning to `Cc1cc2ccc(C(=O)n3nc4c(c3N)CCCC4)cc2o1` [Example 60, (3-amino-4,5,6,7-tetrahydroindazol-2-yl)(2-methylbenzofuran-6-yl)methanone], the IC50 at Human alpha-thrombin was 22 µM; at Human FXIIa, 17 µM.
The corresponding values for `Cc1cc2ccc(C(=O)n3nc(N)c4c3CCCC4)cc2o1` [Example 61, (3-amino-4,5,6,7-tetrahydroindazol-1-yl)(2-methylbenzofuran-6-yl)methanone] are 20 µM and greater than 50 µM.
The corresponding values for `Nc1nn(C(=O)C2CCNc3ccccc32)c2ccccc12` (stereo not shown) [Example 77, (3-amino-1H-indazol-1-yl)(1,2,3,4-tetrahydroquinolin-4-yl)methanone] are greater than 100 µM and greater than 100 µM.
The corresponding values for `COc1ccc(C(=O)n2nc3c(c2N)CCCC3)c2cc[nH]c12` [Example 80, (3-amino-4,5,6,7-tetrahydroindazol-2-yl)(7-methoxy-1H-indol-4-yl)methanone] are 68 µM and 0.25 µM.
With `Cc1cc2c([nH]1)CCCC2C(=O)n1nc2c(c1N)CCCC2` (stereo not shown) [Example 81, (3-amino-4,5,6,7-tetrahydroindazol-2-yl)(2-methyl-4,5,6,7-tetrahydro-1H-indol-4-yl)methanone], the IC50 was greater than 50 µM at Human alpha-thrombin and 0.3 µM on Human FXIIa.
The corresponding values for `Cc1cc2c(o1)CCCC2C(=O)n1nc2c(c1N)CCCC2` (stereo not shown) [Example 85, (3-amino-4,5,6,7-tetrahydro-2H-indazol-2-yl)(2-methyl-4,5,6,7-tetrahydrobenzofuran-4-yl)methanone] are 30 µM and 0.4 µM.
The corresponding values for `Cc1cc2c(s1)CCCC2C(=O)n1nc2c(c1N)CCCC2` (stereo not shown) [Example 86, (3-amino-4,5,6,7-tetrahydroindazol-2-yl)(2-methyl-4,5,6,7-tetrahydrobenzo[b]thiophen-4-yl)methanone] are greater than 80 µM and 0.5 µM.
The corresponding values for `Cc1cc2c(n1S(C)(=O)=O)CCCC2C(=O)n1nc2c(c1N)CCCC2` (stereo not shown) [Example 90, (3-amino-4,5,6,7-tetrahydroindazol-2-yl)(2-methyl-1-(methylsulfonyl)-4,5,6,7-tetrahydro-1H-indol-4-yl)methanone] are 18 µM and 0.3 µM.
Take `CS(=O)(=O)N1CCC(C(=O)n2nc3c(c2N)CCCC3)c2ccccc21` (stereo not shown) [Example 99, (3-amino-4,5,6,7-tetrahydroindazol-2-yl)(1-(methylsulfonyl)-1,2,3,4-tetrahydroquinolin-4-yl)methanone]: the values for the IC50 at Human alpha-thrombin and against Human FXIIa were 22 µM and 1 µM, respectively.
The corresponding values for `COC1CCc2c(c(N)nn2C(=O)c2cccc3[nH]c(C)cc23)C1` (stereo not shown) [Example 120, (3-amino-5-methoxy-4,5,6,7-tetrahydro-2H-indazol-1-yl)(2-methyl-1H-indol-4-yl)methanone] are greater than 80 µM and 10 µM.
The corresponding values for `Cc1cc2c(C(=O)n3nc4c(c3N)CC(F)(F)CC4)cccc2[nH]1` [Example 121, (3-amino-5,5-difluoro-4,5,6,7-tetrahydro-2H-indazol-2-yl)(2-methyl-1H-indol-4-yl)methanone] are 9 µM and 0.02 µM.
